The source of these data is US12180207B2 (ARRAY BIOPHARMA INC., priority 2018, dated 2024).

The target of test [1] is T1, HEK-293 cells transfected with dox-inducible human wild type FGFR3 (Homo sapiens (Human), UniProt P22607). The test is described as follows: FGFR3 pFGFR cell assay (ELISA). The class given is cell-based. Particulars: HEK-293 dox-inducible FGFR3, 1 hour compound, 100 ng/ml FGF-acidic. The procedure, abridged: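 Doxycycline-induced (1 μg/ml) HEK-293 cells expressing wild-type human FGFR3, treated 1 h with compound (1:3 series, top final 5 μM), then stimulated 5 min with 100 ng/ml FGF-acidic. Phospho-FGFR3 measured by ELISA (total FGFR3 capture, phosphotyrosine detection, OD 450 nm); IC50 from 4-parameter fit of POC values.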
In general terms: An ELISA detects its analyte on a solid surface through an enzyme-linked reagent.

Test [2] concerns the target T1, HEK-293 cells transfected with dox-inducible human wild type FGFR3. Kind of test: FGFR3 pERK cell assay. It counts as cell-based. Particulars: HEK-293 dox-inducible FGFR3, 1 hour compound, 100 ng/ml FGF-acidic; maximum concentration 5 μM. In short, it runs like this: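 Doxycycline-induced cells preincubated 1 h at 37 °C with compound (1:3 dilutions, top 5 μM final), then stimulated 5 min with 100 ng/ml FGF-acidic. Lysate phospho-ERK1/2 measured by MSD sandwich assay; IC50 at 50 POC from 4-parameter fit, normalised to no-compound and control-compound wells.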

In test [3] the target is recombinant human FGFR1 catalytic domain (amino acids 308-731) (Homo sapiens (Human), UniProt P11362). Kind of test: FGFR1 enzyme activity assay (LanthaScreen TR-FRET). The class given is biochemical. Particulars: 20 min incubation at 22° C., average of multiple determinations if made, read-out: FGFR1 Enz FRET IC50. In short, it runs like this: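 His-tagged FGFR1 kinase domain with 100 nM Alexa Fluor 647-poly-GT peptide and ATP in pH 7.5 HEPES/MgCl2 buffer with 2% DMSO, 20 min at 22 °C. Quenched with EDTA plus 2 nM Eu-PY20 antibody and read after 60 min. IC50 comes from a 4-parameter fit of percent of control.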
(In TR-FRET formats the signal depends on donor and acceptor labels being close together.)

Test [4] concerns the target recombinant human FGFR3 (amino acids R397-T806) (Homo sapiens (Human), UniProt P22607). Kind of test: FGFR3 enzyme activity assay (LanthaScreen TR-FRET). The class given is biochemical. The note with it: 25 μM ATP, 10 min incubation at 22° C., average of multiple determinations if made, read-out: FGFR3 Enz FRET IC50. In short, it runs like this:
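GST-HIS6-tagged human FGFR3 (R397-T806) was reacted with 100 nM Alexa Fluor 647-Poly-GT substrate and 25 μM ATP plus compound in HEPES/MgCl2/Triton buffer, pH 7.5, 2% DMSO, for 10 min at 22 °C.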

Structures are written as SMILES.

T1 sequence (P22607 23-806): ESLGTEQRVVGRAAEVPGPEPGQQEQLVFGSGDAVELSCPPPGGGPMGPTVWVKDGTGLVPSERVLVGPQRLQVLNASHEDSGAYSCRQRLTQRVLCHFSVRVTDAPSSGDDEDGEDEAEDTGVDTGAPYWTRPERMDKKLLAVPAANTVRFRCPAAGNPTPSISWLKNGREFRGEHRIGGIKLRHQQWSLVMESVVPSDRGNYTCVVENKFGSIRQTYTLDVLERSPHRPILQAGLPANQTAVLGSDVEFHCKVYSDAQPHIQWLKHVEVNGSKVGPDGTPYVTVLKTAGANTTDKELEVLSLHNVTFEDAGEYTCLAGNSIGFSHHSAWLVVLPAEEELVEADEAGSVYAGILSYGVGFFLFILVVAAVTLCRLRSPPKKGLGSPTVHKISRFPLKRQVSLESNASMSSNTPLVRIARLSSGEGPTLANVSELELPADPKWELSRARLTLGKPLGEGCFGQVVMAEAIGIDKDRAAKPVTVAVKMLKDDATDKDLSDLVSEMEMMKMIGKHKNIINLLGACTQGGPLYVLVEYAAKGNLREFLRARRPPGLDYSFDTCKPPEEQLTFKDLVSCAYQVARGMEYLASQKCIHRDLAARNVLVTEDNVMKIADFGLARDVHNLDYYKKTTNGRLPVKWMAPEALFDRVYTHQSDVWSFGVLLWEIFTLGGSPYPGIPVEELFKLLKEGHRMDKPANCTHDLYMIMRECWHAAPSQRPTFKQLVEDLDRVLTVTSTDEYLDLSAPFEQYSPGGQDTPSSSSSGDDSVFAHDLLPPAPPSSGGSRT
Chain of recombinant human FGFR1 catalytic domain (amino acids 308-731) (P11362 other isoform, or with tags, fused parts or gaps): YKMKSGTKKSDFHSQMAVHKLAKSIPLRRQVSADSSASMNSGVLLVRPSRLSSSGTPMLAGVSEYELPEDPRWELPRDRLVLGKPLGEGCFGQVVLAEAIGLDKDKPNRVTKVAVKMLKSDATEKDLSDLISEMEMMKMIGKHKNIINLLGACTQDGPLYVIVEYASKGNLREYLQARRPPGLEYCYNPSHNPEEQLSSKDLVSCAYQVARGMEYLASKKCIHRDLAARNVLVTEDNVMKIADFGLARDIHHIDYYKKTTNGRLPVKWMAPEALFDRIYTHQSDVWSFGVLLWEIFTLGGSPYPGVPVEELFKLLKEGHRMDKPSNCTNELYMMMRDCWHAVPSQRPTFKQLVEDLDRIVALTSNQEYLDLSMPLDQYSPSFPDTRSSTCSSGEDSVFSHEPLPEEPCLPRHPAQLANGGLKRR
Chain of recombinant human FGFR3 (amino acids R397-T806) (P22607 397-806): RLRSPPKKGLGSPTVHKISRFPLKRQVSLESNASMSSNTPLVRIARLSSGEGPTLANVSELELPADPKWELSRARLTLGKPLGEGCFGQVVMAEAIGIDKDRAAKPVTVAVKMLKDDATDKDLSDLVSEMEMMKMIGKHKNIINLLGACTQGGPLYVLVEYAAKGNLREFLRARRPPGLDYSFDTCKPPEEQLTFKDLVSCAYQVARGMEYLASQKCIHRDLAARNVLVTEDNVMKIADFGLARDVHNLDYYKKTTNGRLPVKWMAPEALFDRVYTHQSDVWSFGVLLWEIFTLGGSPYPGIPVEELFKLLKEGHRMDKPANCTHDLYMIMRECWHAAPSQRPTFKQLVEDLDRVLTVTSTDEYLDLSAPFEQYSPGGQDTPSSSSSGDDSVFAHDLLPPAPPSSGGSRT

One may read the IC50 as the concentration needed to halve the response being measured. Turning to `C=CC(=O)N1CC(C(=O)N2CCN(c3ccc(-c4cc(OC)c5c(C#N)cnn5c4)cc3)CC2)C1` [Example 100, 6-(4-(4-(1-acryloylazetidine-3-carbonyl)piperazin-1-yl)phenyl)-4-methoxypyrazolo[1,5-a]pyridine-3-carbonitrile], the 50% inhibitory concentration (IC50) was 0.021 µM in test [1], 0.021 µM in test [2], 0.009 µM in test [3] and 0.002 µM in test [4].

Regarding `C=CC(=O)N1CC(C(=O)N2CCN(c3ccc(-c4cc(OC)c5c(C#N)cnn5c4)cn3)CC2)C1` [Example 111, 6-(6-(4-(1-acryloylazetidine-3-carbonyl)piperazin-1-yl)pyridin-3-yl)-4-methoxypyrazolo[1,5-a]pyridine-3-carbonitrile], the IC50 in test [1] amounted to 0.043 µM; in test [2], 0.034 µM; in test [3], 0.012 µM; in test [4], 0.003 µM.

As to `C=CC(=O)N1CC(F)(C(=O)N2CCC(n3cc(-c4cc(OC)c5c(Cl)cnn5c4)cn3)CC2)C1` [Example 121, 1-(3-(4-(4-(3-chloro-4-methoxypyrazolo[1,5-a]pyridin-6-yl)-1H-pyrazol-1-yl)piperidine-1-carbonyl)-3-fluoroazetidin-1-yl)prop-2-en-1-one], the IC50 in test [1] turned out to be 0.031 µM; in test [2] it was 0.025 µM; in test [3], 0.028 µM; in test [4] it was 0.009 µM.

For the compound `C=CC(=O)N1CC(C(=O)N2CCC(n3cc(-c4cc(OC)c5c(Cl)cnn5c4)cn3)CC2)C1` [Example 122, 1-(3-(4-(4-(3-chloro-4-methoxypyrazolo[1,5-a]pyridin-6-yl)-1H-pyrazol-1-yl)piperidine-1-carbonyl)azetidin-1-yl)prop-2-en-1-one], the IC50 is 0.071 µM in test [1], 0.052 µM in test [2], 0.028 µM in test [3] and 0.009 µM in test [4].

Turning to `C=CC(=O)N1CC(S(=O)(=O)N2CCC(n3cc(-c4cc(OC)c5c(C#N)cnn5c4)cn3)CC2)C1` [Example 134, 6-(1-(1-((1-acryloylazetidin-3-yl)sulfonyl)piperidin-4-yl)-1H-pyrazol-4-yl)-4-methoxypyrazolo[1,5-a]pyridine-3-carbonitrile], the IC50 in test [1] worked out at 0.012 µM; in test [2], 0.013 µM; in test [3], 0.005 µM; in test [4] it was 0.006 µM.

Take `C#CC(=O)N1CC(C(=O)N2CCC(n3cc(-c4cc(OC)c5c(C#N)cnn5c4)cn3)CC2)C1` [Example 138, 4-methoxy-6-(1-(1-(1-propioloylazetidine-3-carbonyl)piperidin-4-yl)-1H-pyrazol-4-yl)pyrazolo[1,5-a]pyridine-3-carbonitrile]: the concentration for half-maximal inhibition (IC50) in test [1] came out at 0.017 µM; in test [2], 0.016 µM; in test [3] it was 0.007 µM; in test [4], 0.002 µM.

With `COc1cc(-c2cnn(C3CCN(CC4CN(C(=O)/C=C/CN(C)C)C4)CC3)c2)cn2ncc(C#N)c12` [Example 146, (E)-6-(1-(1-((1-(4-(dimethylamino)but-2-enoyl)azetidin-3-yl)methyl)piperidin-4-yl)-1H-pyrazol-4-yl)-4-methoxypyrazolo [1,5-a]pyridine-3-carbonitrile], the IC50 in test [1] was found to be 0.08 µM; in test [2], 0.096 µM; in test [3], 0.012 µM; in test [4], 0.002 µM.

With `COc1cc(-c2cnn(C3CCN(CC4CN(C(=O)/C=C/CN5CCCCC5)C4)CC3)c2)cn2ncc(C#N)c12` [Example 175, (E)-4-methoxy-6-(1-(1-((1-(4-(piperidin-1-yl)but-2-enoyl)azetidin-3-yl)methyl)piperidin-4-yl)-1H-pyrazol-4-yl)pyrazolo[1,5-a]pyridine-3-carbonitrile], the results for the half-inhibitory concentration (IC50) in test [1], in test [3] and in test [4] were 0.052 µM, 0.004 µM and 0.005 µM, respectively.

For `C=CC(=O)N(C)c1ccc(C(=O)N2CCC(n3cc(-c4cc(OC)c5c(C#N)cnn5c4)cn3)CC2)cc1` [Example 178, N-(4-(4-(4-(3-cyano-4-methoxypyrazolo[1,5-a]pyridin-6-yl)-1H-pyrazol-1-yl)piperidine-1-carbonyl)phenyl)-N-methylacrylamide], the 50% inhibitory concentration (IC50) in test [1] is 0.044 µM; in test [3] it was 0.014 µM; in test [4], 0.012 µM.

`C=CS(=O)(=O)N1CCC(C(=O)N2CCC(n3cc(-c4cc(OC)c5c(C#N)cnn5c4)cn3)CC2)CC1` [Example 186, 4-methoxy-6-(1-(1-(1-(vinylsulfonyl)piperi-dine-4-carbonyl)piperidin-4-yl)-1H-pyrazol-4-yl)pyrazolo[1,5-a]pyridine-3-carbonitrile]: the IC50 was 0.006 µM in test [1], 0.006 µM in test [2], 0.005 µM in test [3] and 0.005 µM in test [4].
